Results from patent US9089514B2, “Composition and method for inhibiting biogenic sulfide generation” (Arkion Life Sciences, priority 2010, dated 2015).
Values joined by “and” are separate entries in the source; they are usually repeats but may differ in a detail not shown here. Equal values may be shown once.

What was measured:
Assay type in all cases: cell-based, Prudhoe Bay sulfate reducing bacteria
[1] = system: sulfate reducing bacteria (SRB) biofilms; assay: Test Series #3a: simulated gravity settling in tank (centrifugation), sulfide monitoring; conditions: 0.254 mg AHQ
Description: (§1) 6. Monitor the aqueous sulfide content in the tubes daily for up to three days, beginning the day after treatment, to determine the effectiveness of each treatment option on generation of hydrogen sulfide. Sulfide dissolved in the medium was determined in mg/L using Hach Method 8131 for the Hach DR-2010 spectrophotometer. The method utilizes methylene blue to measure total sulfides. The sulfide level in each tube was determined by gently inverting the tube several times, uncapping the tube and quickly removing a 125 μl aliquot of solution, and recapping the tube. The aliquot was diluted in 24.9 ml of deionized water in a quartz cuvette for the Hach procedure. The procedure is summarized in Table 1 for three separate test series.
(§2) Gravity settling in the tank was simulated by spinning the culture tubes after treatment in a laboratory centrifuge at 2000 to 2700 rpm. The AQ or AHQ particles then “settled” to the bottom of the tube and were able to deposit into the biofilm on the granite chips. The medium above the granite chips was then removed and replaced with fresh medium. The tubes were then incubated at 30° C. in the Lab-Line Orbit Environ-Shaker. The concentration of AQ or AHQ in the removed medium was analyzed to determine the amount of AQ or AHQ deposited in the biofilm. Experiments were run with duplicate samples.
Two series of tests were performed with this procedure. Series #3a compared the efficacy of treating with the AHQ di-alkali salt test solution (AHQ) and the AHQ test mixture #2 (AHQ-slurry-2) at the same AHQ mass loading (0.254 mg AHQ). Two different centrifugation times (20 sec, 60 sec) were utilized in Test Series #3a to represent two different tank residence times.

[2] = system: sulfate reducing bacteria (SRB) biofilms; assay: AHQ di-alkali salt solution vs AHQ-slurry-2 by the Test Series #2 procedure; conditions: 18 ppmw AHQ
Description: as §1
(§3) This test series was performed to further compare the efficacy of slurries of AHQ and AQ and combinations of AHQ/AQ in slurries in controlling H2S emissions. AHQ-slurry-2 was used in this series of experiments. The tests were performed by first removing the spent medium from the tubes, refilling with fresh medium, treating with the test solution, tumbling the tubes for two minutes, and then incubating at 30° C. in the Lab-Line Orbit Environ-Shaker.
Each test treatment contained 18 ppmw AHQ. […] However, under some circumstances, larger particle sizes are preferable. […]

[3] = system: sulfate reducing bacteria (SRB) biofilms; assay: Test Series #3b: simulated gravity settling, AQ vs AHQ-slurry-2, sulfide monitoring
Description: as §1, §2
Test Series #3b was performed with the same procedure as Test Series #3a to compare the efficacy of the AQ test mixture (AQ) with that of AHQ-slurry-2 at the same AHQ or AQ mass loading (0.254 mg). The tubes were spun for 20 seconds.

[4] = system: sulfate reducing bacteria (SRB) biofilms; assay: Test Series #1: inhibition of H2S biogeneration from SRB biofilms on granite chips; conditions: for Sulfides Day 1: day 1 after treatment; for Sulfides Day 1 / Sulfides Day 2 / Sulfides Day 3: THPS 51 ppmw, AQ or AHQ (AHQ-slurry-1) 25 ppmw per tube, 30° C.; for Sulfides Day 2: day 2 after treatment; for Sulfides Day 3: day 3 after treatment
Description: (§4) 1. Load 7 grams of crushed granite chips into 15-ml culture tubes; autoclave.
(§5) 2. Prepare an inoculum by adding a culture of Prudhoe Bay sulfate reducing bacteria to a flask containing an appropriate iron-free culture medium for sulfate reducing bacteria that further contains 90% deaerated artificial sea water. Incubate bacteria anaerobically at 30° C. for 3-4 days.
(§6) 3. Fill each 15 ml culture tube containing granite chips with the inoculum; incubate tubes anaerobically at 30° C. for 7-11 days in a Lab-Line Orbit Environ-Shaker set at 30° C. and 120 rpm. All incubation steps for the bacteria in the culture tubes were performed is in the Environ-Shaker.
(§7) 4. Pour off spent medium and fill with fresh medium. Incubate for 6-7 days then replace medium with fresh medium again. Repeat medium change after 4-8 days and incubate for 3-5 additional days.
(§8) 5. Treat the biofilms that have grown on the granite chips as described below. Incubate at 30° C.
as §1
Following the growth of the sulfate reducing bacteria (SRB) biofilms on the granite chips in the culture tubes, the biofilms were treated by injecting the appropriate test solution and then gently tumbling the tubes for two minutes on a Barnstead/Thermolyne Labquake Tube Shaker to allow the treatment solution to dynamically contact the biofilms.
Test compound solutions were injected into the tubes. THPS was added to 51 ppmw per tube. AQ and AHQ-slurry-1 were added to 25 ppmw AQ or AHQ per tube. Each tube contained about 14 ml of medium. The tubes were tumbled for two minutes, then moved to a nitrogen glove bag. The liquid was removed and the tubes were washed once with is medium and then refilled with medium. The tubes were then tumbled once more for two minutes before being placed in a Lab-Line Orbit Environ-Shaker set at 30° C. and 120 rpm for incubation.
Control tubes contained biofilms on granite chips and culture medium, but no test compound. Control tubes were otherwise handled as described above for test-compound tubes.
In THPS-treated tubes all of the residual THPS was removed so that biocidal activity occurred only during the contact time while tumbling. In AQ and AHQ treated tubes, residual test solutions were allowed to remain in the tubes to simulate treatment in a tank, where AQ or AHQ settles in the biofilm/sludge at the bottom of the vessel. Treatments were performed in duplicate.

[5] = system: sulfate reducing bacteria (SRB) biofilms; assay: Test Series #2: AQ, AHQ and AQ:AHQ slurries, sulfide monitoring in SRB biofilm tubes; conditions: for Sulfides Day 1: day 1, same combined mass of active AQ plus AHQ; for Sulfides Day 1 / Sulfides Day 2 / Sulfides Day 3: AHQ-slurry-2 used; for Sulfides Day 2: day 2, same combined mass of active AQ plus AHQ; for Sulfides Day 3: day 3, same combined mass of active AQ plus AHQ
Description: as §4, §5, §6, §7, §8, §1, §3
Each test was made with the same combined mass of active AQ plus AHQ. Results, as summarized in Table 3 and FIG. 2, confirmed the results of Series #1 in that all treatments were effective compared with the control.

| Compound | Sulfides Day 1 ([1]; centrifugation 20 sec) | Sulfides Day 2 ([1]; centrifugation 20 sec) | Sulfides Day 3 ([1]; centrifugation 20 sec) | Sulfides Day 1 ([1]; centrifugation 60 sec) | Sulfides Day 2 ([1]; centrifugation 60 sec) | Sulfides Day 3 ([1]; centrifugation 60 sec) | reducing sulfides (comparison in words) [2] | sulfides on day 3 of treatment ([2]; Test Series #2 procedure (no settling)) [mg/L] | inhibiting H2S generation (comparison in words) [3] | inhibiting H2S biogeneration from SRB biofilms (comparison in words) [4] | Sulfides Day 1 [4] | Sulfides Day 2 [4] | Sulfides Day 3 [4] | inhibiting the generation of H2S (comparison in words) [5] | Sulfides Day 1 [5] | Sulfides Day 2 [5] | Sulfides Day 3 [5] | Sulfides Day 1 ([3]; spun 20 sec, 0.254 mg AHQ or AQ, day 1) | Sulfides Day 2 ([3]; spun 20 sec, 0.254 mg AHQ or AQ, day 2) |
| --- | --- | --- | --- | --- | --- | --- | --- | --- | --- | --- | --- | --- | --- | --- | --- | --- | --- | --- | --- |
| [Na+].[Na+].[O-]c1c2ccccc2c([O-])c2ccccc12 [AHQ, dialkali salt solution, anthrahydroquinone di-alkali salt] | 29 mg/L and 31 mg/L | 37.6 mg/L and 45.2 mg/L | 42 mg/L and 48.6 mg/L | 36.6 mg/L and 21.8 mg/L | 50.8 mg/L and 37 mg/L | 53.6 mg/L and 42.6 mg/L | superior to AHQ neutral slurry in reducing sulfides | 7.4 |  |  |  |  |  |  |  |  |  |  |  |
| Oc1c2ccccc2c(O)c2ccccc12 [AHQ, anthrahydroquinone] |  |  |  |  |  |  |  |  | superior to AQ in inhibiting H2S generation | superior to THPS, AQ, and the combination of THPS and AQ | 9.2 mg/L and 11.2 mg/L | 23 mg/L and 27 mg/L | 30.6 mg/L and 31 mg/L | more effective than AQ solution alone or AHQ/AQ neutral slurry combinations | 22.2 mg/L and 19.6 mg/L | 31 mg/L and 26.6 mg/L | 36.8 mg/L and 36.4 mg/L |  |  |
| O=C1c2ccccc2C(=O)c2ccccc21 [AQ, anthraquinone] |  |  |  |  |  |  |  |  |  | comparable to THPS treatment | 22.6 mg/L and 19 mg/L | 41.2 mg/L and 34.6 mg/L | 46.2 mg/L and 40.8 mg/L |  | 33.2 mg/L and 30.4 mg/L | 40 mg/L and 38.8 mg/L | 44.4 mg/L and 43.2 mg/L | 43.8 mg/L and 33.8 mg/L | 54.2 mg/L and 50.2 mg/L |
| tetrakishydroxymethylphosphonium sulfate [THPS] |  |  |  |  |  |  |  |  |  |  | 18 mg/L and 19.8 mg/L | 39.6 mg/L and 38.4 mg/L | 46.2 mg/L |  |  |  |  |  |  |
